What was measured:
Format in all cases: in vivo
[1] = Gain of body fat mass by DEXA in Swiss mice, standard diet, not fasted; settings: 100 mg/kg/day; for gain of body fat: standard diet, not fasted
From the text: Six to 8 weeks old male (Crl:CD-1(ICR)BR) Swiss mice, and six to ten weeks old male RjOrl Swiss mice (i.e. lean mice) weighing 28 and 32 grams were purchased from Dépré (Saint Doulchard, France). Ten to 12 weeks old ob/ob male (C57BL/6-ob) mice (i.e. obese mice), weighing 40 to 44 grams were purchased from Janvier (Le-Genest-St-Isle, France). In one experiment, younger ob/ob mice (5-6 weeks old) weighing 25-26 grams were also studied. In genetically obese ob/ob mice, a mutation on the gene of leptin prevents the normal production of this hormone, thus increasing appetite and decreasing energy consumption (Friedman J. M., Halaas J. L., 1998, Nature 395 : 763-770). […] The animals were acclimatized for one to two weeks before the start of experiments.
D,L-β-Aminoisobutyric acid (BAIBA) was purchased from Sigma-Aldrich. BAIBA has been administered in drinking water at the dose of 100 mg/kg/day or 500 mg/kg/day for 6 weeks, 2 months or 4 months according to the experiments.
The in vivo determination of body fat mass in anesthetized mice has been performed by “DEXA” (Dual Energy X-ray Absorptiometry) (Pietriobelli A., Formica C., Wang Z., Heymsfield S. B., 1996, Am. J. Physiol. 271 (Endocrinol. Metab. 34): E941-E951)). […] It is noteworthy that DEXA also gives for each investigated animal its lean mass that is the total amount of water and proteins (in grams) in the body (excluding the head). Therefore, for a given animal, DEXA allows the determination of the percentage of body fat which is its body fat mass divided by the sum of its body lean and fat masses (fat mass/(lean mass+fat mass)). The “DEXA” apparatus was a Piximus® from Lunar Corporation (Madison, Wis.). Mice were anesthetized thanks to a mixture of xylazine and ketamine.
Procedure 1: the animals were not fasted before DEXA investigations. The first DEXA measurement was performed one day before the beginning of the investigation (T0). Afterwards, DEXA measurements have been respectively performed two weeks (T2) and six weeks (T6) after the beginning of the treatment. With this procedure, it has been possible to determine in each group of animals the evolution of several parameters (e.g. fat mass, body weight) between respectively T0 and T2, and T2 and T6. Comparisons of these evolutions were thus performed for the T0-T2, T2-T6 and T0-T6 periods.
In a second series of investigations, we sought to determine as to whether of 100 mg/kg/day of β-aminoisobutyric acid (BAIBA) decreases body fat in Swiss mice not submitted to fast before DEXA measurements. Mice were 6 to 8 weeks old at the beginning of the experiment. In this experiment, DEXA was performed one day before the beginning of the treatment (T0) and then two and six weeks after the initiation of the experience (T2 and T6, respectively). This allowed us to determine for each animal the variation of body fat mass for the different periods of the treatment (T0-T2, T2-T6 and T0-T6). […] This effect of BAIBA is submitted in FIG. 2.

[2] = Plasma lipids in Swiss mice fed with a western diet, 6 weeks, 48-hour fast; settings: 100 mg/kg/day
Experimental: (§1) Plasma lipids (triglycerides, total cholesterol, phospholipids) were measured on an automatic analyser (Hitachi 717®). The commercial kits used to assess triglycerides, total cholesterol and phospholipids on this analyser were all from bioMérieux (references 61238, 61219 and 61491, respectively). Plasma non esterified fatty acids (NEFA) were assessed by using a commercial kit (Wako, reference 994-75409). Hepatic and plasma lipids were performed at the end of six weeks of treatment in animals that have been fasted for 48 hours. Triglycerides and HDL-cholesterol were also assessed after 2 months (in the fed state) or after 4 months of treatment (after an overnight fast).
Plasma lipids were assessed in mice fed with the western diet (WD) and receiving or not of 100 mg/kg/day of β-aminoisobutyric acid (BAIBA) in the drinking water (8 mice in each group). For comparison, the experiment also included a group of mice (n=8) fed with a standard diet (SD). These animals were those used for the determination of body fat by DEXA and liver lipids (see above, paragraph I-c and II-a, respectively). After the last DEXA measurement (after 6 weeks of treatment), mice were allowed to recover from the anaesthesia for ca. 2 days and were then submitted to a 48-hour period of fast. At the end of this fasting period, a sample of blood was collected (from the retroorbital sinus) […] and plasma triglycerides, phospholipids, total cholesterol and non-esterified fatty acids (NEFA) were subsequently determined. After 6 weeks, the western diet was responsible for an increase of all plasma lipids, but the most affected lipids were triglycerides.

[3] = Plasma lipids in very young ob/ob mice; settings: very young ob/ob mice (6 weeks at the beginning)
Experimental: as §1
Accordingly, plasma triglycerides were 1.35 and 1.39 mmol/L in ob/ob mice in the present study, whereas much higher levels (1.96 mmol/L) were found in Swiss mice fed with the western diet (see above). Thus, it remains possible that the beneficial effects of BAIBA on plasma lipids are more pronounced when lipid levels are above a certain threshold. In keeping with this notion, BAIBA reduced by 22% plasma triglycerides in mice fed with the western diet (FIG. 6).

[4] = Plasma glucose, insulin and adiponectin in very young ob/ob mice (5-6 weeks old), 6 weeks
Experimental: Plasma glucose was measured on an automatic analyser (Synchron LX20 from Beckman Coulter) with a commercial kit (kit n°472500 from Beckman).
Plasma insulin, adiponectin and leptin were measured by radioimmunoassay (RIA). Insulin was measured with the Insulin-CT kit from Cis Bio International (Gif-sur-Yvette, France), whereas plasma leptin and adiponectin were assessed with kits from Linco Research Inc. (St Charles, Mo.). Leptin was not measured in ob/ob mice since these animals are genetically leptin-deficient (Friedman J. M., Halaas J. L., 1998, Nature 395: 763-770). Results regarding insulin were expressed as recommended by kit manufacturer.
In another experiment, very young ob/ob mice (5-6 weeks old) were treated with 100 mg/kg/d of β-aminoisobutyric acid for 6 weeks and fasted for the last 48 hours. Although plasma glucose was not decreased in treated mice, there was a clear trend toward lower insulin and higher adiponectin. Indeed, plasma insulin was 56±9 and 37±5 μU/ml (p=0.08), respectively in control mice (n=7) and mice treated with β-aminoisobutyric acid (n=7). Plasma adiponectin was 8.0±1.1 and 10.9±1.2 μg/ml (p=0.08), respectively in control mice (n=7) and mice treated with β-aminoisobutyric acid (n=7).

[5] = 100 mg/kg/d 6 weeks, very young ob/ob, fasted 48 hours, p=0.08

With `CC(CN)C(=O)O` (racemic) [BAIBA, D,L-β-Aminoisobutyric acid] the “gain of body fat” value ([1]; T0-T2 period) was 0.56±0.12 grams, the “gain of body weight” value ([1]; T0-T6) was 9.02±0.42 grams and the “reduction of the gain of fat mass” value ([1]; T0-T6, standard diet, vs control) was 55%. For the same compound, the “reduction of the gain of body weight” value ([1]; T0-T6, vs control, p<0.01) was 12%, the “gain of body fat” value ([1]; T0-T6 period) was 0.84±0.18 grams and the “gain of body fat” value ([1]; T2-T6 period) was 0.28±0.12 grams. The “decrease of plasma NEFA” value [2] was 16%, the “decrease of total cholesterol” value [2] was 4% and the “plasma NEFA” value [2] was 0.88 ± 0.06 mmol/L. The plasma total cholesterol [2] was 6.71 ± 0.27 mmol/L, the plasma triglycerides [2] was 1.54 ± 0.13 mmol/L and the “reduction of plasma triglycerides” value ([2]; not significant) was 22%. For the same compound, the plasma phospholipids [3] was 4.35 ± 0.11 mmol/L, the plasma total cholesterol [3] was 4.96 ± 0.15 mmol/L and the plasma triglycerides [3] was 1.07 ± 0.03 mmol/L. For the same compound, the “reduction of plasma phospholipids” value [3] was 4%, the “reduction of total cholesterol” value [3] was 5% and the “plasma glucose vs control” value ([4]; 100 mg/kg/d 6 weeks, very young ob/ob, fasted 48 hours) was “not decreased”. The plasma adiponectin [4, 5] was 10.9 ± 1.2 µg/mL, the plasma insulin [4, 5] was 37±5 μU/ml and the “increase of plasma level of adiponectin” value ([4]; obese mice) was “around 35%”.

— patent US20060167098A1, “Method for the treatment of diseases linked to an accumulation of triglycerides and cholesterol” (Institut National De La Sante ET De LA Recherche Medicale …, priority 2003, published 2006)
